Measurements from US6352982B1, “4,1-benzoxazepines, their analogues, and their use as somatostatin agonists” (Takeda Chemical Industries, Ltd., priority 1997, dated 2002).
Counter-ions that a name gives are not always drawn.

Assays:
[1] = system: primary cell culture of the rat anterior pituitary; assay: Inhibition of growth hormone (GH) secretion from primary cell culture; assay type: cell-based; conditions: GHRH-stimulated, 37° C. for 3 hours; for EC50: Rattus norvegicus, GH by RIA, read-out: ED50 values, inhibition of GH secretion
Description: The anterior pituitaries were excised from the decapitated skull of 40 unanesthetized male rats of 8 weeks of age. The anterior pituitaries were placed in a laboratory dish containing the buffer A (consisting of 137 mM of sodium chloride, 5 mM of potassium chloride, 0.7 mM of disodium hydrogen phosphate, 25 mM of 2-[4-(2-hydroxyethyl)-1-piperazinyl]ethane sulfonic acid (HEPES) (pH 7.3), and 50 μg/ml of gentamicin sulfate] and washed once with the buffer A. Each anterior pituitary was cut into 4 pieces by scissors and washed twice again. The pieces of the anterior pituitaries were incubated in 30 ml of Enzyme Solution I [buffer A solution containing 0.4% of collagenase (Boehringer Mannheim), 0.4% of bovine serum albumin, 10 μg/ml of deoxyribonuclease (Sigma) and 0.2% of glucose] at 37° C. under shaking for 1 hour. After dispersion of the pieces of the anterior pituitaries by a Komagome pipette, the solution was centrifuged (480×g, for 6 minutes). The supernatant was discarded. The sediment was suspended in 30 ml of Enzyme Solution II [buffer A solution containing 0.25% of pancreatin (Sigma)] and incubated at 37° C. under shaking for 8 minutes. After adding 2 ml of fetal calf serum, the cell suspension was centrifuged (480×g, for 6 minutes) again and the supernatant was discarded. The sediment was suspended in 10 ml of Medium I [Dulbecco modified Eagle's Medium (DMEM) containing 10% of fetal calf serum, 20 mM of HEPES (pH 7.3), 50 U/ml of penicillin G and 50 μg/ml of streptomycin] and filtered through nylon mesh. The cells thus obtained were washed twice with 10 ml of Medium I. The number of the cells was counted, and the cells were suspended in Medium I in the cell density of 1.5×10^5 cells/ml. The aliquots of 1 ml each of the cell suspension were placed in the wells of 24-well plate and incubated at 37° C. for 3 days in the carbon dioxide incubator under 5% carbon dioxide-95% air environment. The cells were washed twice with 1 ml of Medium II (Medium I containing 0.2% bovine serum albumin instead of 10% fetal calf serum) and then incubated in 1 ml of Medium II for 1 hour. The supernatant was discarded. To each well of the 24-well plate 0.8 ml each of Medium II was added, and 0.1 ml of Medium II containing somatostatin-14 (SS-14) or the compound of Example 5 or the compound of Example 102 in the concentration of 10 times the final concentration and 0.1 ml of 10 nM growth hormone releasing hormone (GHRH) were added thereto. After incubation at 37° C. for 3 hours, 0.6 ml of the supernatant of the each well was collected to obtain a supernatant solution by the centrifugation on 1,000×g for 8 minutes. GH concentrations in the supernatant were determined by radioimmunoassay (RIA) kit of Amersham.

Sprague-Dawley (SD) rats = assay: Inhibition of GH secretion using Sprague-Dawley rats; assay type: in vivo, rat; conditions: male SD rats, 3 mg/kg intraperitoneally
Description: Male rats of SD strain were divided into the compound treatment group (n=5) and the control group (n=4). The rats in the compound treatment group were administered intraperitoneally with 0.5% methylcellulose saline solution containing the compound of Example 5 in the concentration of 3 mg/kg/5 ml, and the animals of the control group were administered intraperitoneally with 5 ml/kg of 0.5% methylcellulose saline solution. Four hours after administration, the rats were decapitated without anesthesia and whole blood was collected. The aliquots of 1 ml each of the plasma were obtained from the blood by centrifugation at 2,500 rpm at 4° C. for 30 minutes and stored at −20° C. Plasma GH concentrations were determined by RIA using the rat GH [ I] assay system (Amersham).

[2] = target: T1, human somatostatin receptor SSTR1 (Homo sapiens, UniProt P30872); assay: Binding inhibition of 125I-somatostatin, CHO cell membrane fraction; conditions: 125I-somatostatin binding, 25° C. for 60 minutes, read-out: Activities for human somatostatin receptor (IC50 value) SSTR1
T1 construct: expressed in transfected cells; host or cells: CHO (dhfr-) cells, strain SSTR1-8-3
Description: A human somatostatin receptor expression CHO cell strain, SSTR1-8-3, SSTR2-HS5-9, SSTR3-15-19, SSTR4-1-2 or SSTR5-32-4 (10^9), was suspended in a phosphate buffered saline containing 5mM of EDTA (PBS-EDTA). The suspension was centrifuged. To the cell pellet was added 10 ml of a homogenation buffer solution for cells (10 mM NaHCO3, 5 mM EDTA, pH=7.5). The mixture was homogenized by a Politron homogenizer and centrifuged at 400×g for 15 minutes. The supernatant obtained was farther centrifuged at 100,000×g for an hour to obtain a precipitate of the membrane fraction. The precipitate was suspended in 2 ml of a buffer solution for assay ([…], 0.1% of BSA (bovine serum albumin) and […], 1 μ/ml of pepstatin, 20 μg/ml of leupeptin, 10 μg/ml of phosphoramide, pH=7.5). The suspension was centrifuged at […] for an hour. The membrane fraction recovered as precipitate was suspended again in 20 ml of buffer solution for assay. The suspension was placed in tubes and stored at −80° C. The suspension was thawed when used, and used at every use.
The membrane fraction prepared in Example 1 was diluted with a buffer solution for assay to adjust the concentration to 3 μg/ml. The diluate was placed in tubes each in quantity of 173 μl. To this were simultaneously added 2 μl of a solution of a compound in DMSO and 25μl of a 200pM radioisotope-labeled somatostatin (^125I-somatostatin: Amersham) solution. For measurement of the maximum binding, a reaction mixture added with 2 μl of DMSO and 25μl of a 200pM ^125I-somatostatin solution was prepared. For measurement of non-specific binding, a reaction mixture added with 2 μl of a 100 μM somatostatin solution diluted in DMSO and 25 μl of a 200pM ^125I-somatostatin solution was prepared at the same time. The mixtures were allowed to react at 25° C. for 60 minutes. Then, the reaction mixture was filtered by aspiration using a GF/B glass fiber filter paper (Whatman) treated with polyethylenimine. After filtration, the radioactivity of 125I-somatostatin remaining on the filter paper was measured by a γ-counter.
The binding rate (%) of each compound was calculated by the formula: […]
(where PBM: Percent maximum Binding, B: radioactivity when a compound was added, Bo: maximum binding radioactivity, NSB: non-specific binding radioactivity). The binding rates were calculated by changing the concentrations of the compound to obtain the 50% inhibiting concentration of the compound (IC50 value) by the Hil l plots.
The activities (IC50 value, μM) of the compounds for each human somatostatin receptor obtained by the above method are shown in the following Table 5.

T1 sequence (P30872 whole entry): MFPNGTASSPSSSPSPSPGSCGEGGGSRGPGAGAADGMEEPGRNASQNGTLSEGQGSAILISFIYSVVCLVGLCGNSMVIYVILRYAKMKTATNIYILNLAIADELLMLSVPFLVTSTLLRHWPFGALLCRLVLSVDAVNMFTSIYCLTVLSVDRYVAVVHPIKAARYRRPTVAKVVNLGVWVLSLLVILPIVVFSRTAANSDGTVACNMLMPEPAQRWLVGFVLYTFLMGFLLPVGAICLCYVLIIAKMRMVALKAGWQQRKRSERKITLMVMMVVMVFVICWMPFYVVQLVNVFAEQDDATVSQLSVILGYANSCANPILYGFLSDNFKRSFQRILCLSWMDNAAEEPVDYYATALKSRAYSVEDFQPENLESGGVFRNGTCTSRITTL

IC50 [2] | SMILES | GH secretion from the primary cell culture of rat anterior pituitary [1] | EC50 [1] | Plasma GH concentrations mean ± SD (Sprague-Dawley (SD) rats; four hours after administration, n = 5) | Plasma GH concentration versus control (Sprague-Dawley (SD) rats; p<0.05)
 | NCc1cccc(C2OC(CC(=O)NCc3ccccc3F)C(=O)N(Cc3ccc(-c4ccccc4)cc3)c3ccc(Cl)cc32)c1 (stereo not drawn) [Example 5, 3,5-Trans-N-(2-fluorobenzyl)-5-(3-aminomethylphenyl)-1-(4-biphenylmethyl)-7-chloro-2-oxo-1,2,3,5-tetrahydro-4,1-benzoxazepine-3-acetamide•monohydrochloride] | inhibited dose-dependently | 8 nM | 11.2 ± 6.5 ng/mL | declined significantly
> 1000 nM | NCc1cccc(C2OC(CC(=O)NCc3ccccc3F)C(=O)N(Cc3ccc(O)cc3)c3ccc(Cl)cc32)c1 (stereo not drawn) [Example 102, 3,5-Trans-N-(2-fluorobenzyl)-5-(3-aminomethylphenyl)-7-chloro-1-(4-hydroxybenzyl)-2-oxo-1,2,3,5-tetrahydro-4,1-benzoxazepine-3-acetamide•monohydrochloride] | inhibited dose-dependently | 10 nM |  | 
